Data from patent publication US6268366A, “Amide derivatives of substituted quinoxaline 2,3-diones as glutamate receptor antagonists” (Warner-Lambert Company, priority 2000, dated 2001).

How the values were obtained:
[1] = target: T1, glycine (GLY) site of the NMDA receptor (Rattus norvegicus, UniProt P35439); experiment: glycine (GLY) site of the NMDA receptor binding affinity (Jones et al.)
T1 construct: measured as described in Jones S. M., et al., Pharmacol. Methods, 1989;21:161; from tissue

[2] = target: kainate site (non-NMDA receptor); experiment: kainate site (non-NMDA receptor) binding affinity (London and Coyle)
AMPA receptors = experiment: AMPA receptor binding affinity (Honore et al.)
CF-1 strain mice = experiment: maximal electroshock (MES) assay in CF-1 strain mice, corneal electrodes; assay type: in vivo; details: for Ataxic (%) / Protected (%): MES, mice IV; for duration of action in maximal electroshock time course compared with PNQX: mice, 30 mg/kg IV, versus standard PNQX, FIGS. 1 and 2
Method: Additionally, as a preliminary indicator of in vivo CNS activity related to anticonvulsant activity and potential neuroprotection, a maximal electroshock assay in CF-1 strain mice (20-25 g) was performed with corneal electrodes by conventional methods as described previously (Krall, et al., Epilepsia, 1988;19:409-428).
FIGS. […] The graph is the percent of mice protected versus the time in minutes.

IC50 [1] | IC50 KA [2] | IC50 (AMPA receptors) | SMILES | further results
40 nM | 1980 nM | 980 nM | Cc1c([N+](=O)[O-])cc2[nH]c(=O)c(=O)[nH]c2c1CN(C)C(=O)c1ccc(Cl)cc1 [Compound 7, 4-Chloro-N-methyl-N-(6-Methyl-7-nitro-2,3-dioxo-1,2,3,4-tetrahydro-quinoxalin-5-ylmethyl)-benzamide] | –
– | 3700 nM | 1920 nM | Cc1c([N+](=O)[O-])cc2[nH]c(=O)c(=O)[nH]c2c1CN(C)C(=O)c1ccc(C(F)(F)F)cc1 [Compound 8, N-Methyl-N-(6-Methyl-7-nitro-2,3-dioxo-1,2,3,4-tetrahydro-quinoxalin-5-ylmethyl)-4-trifluoromethyl-benzamide] | –
5 nM | 850 nM | 520 nM | COc1ccc(C(=O)N(C)Cc2c(C)c([N+](=O)[O-])cc3[nH]c(=O)c(=O)[nH]c23)cc1 [Compound 14, 4-Methoxy-N-methyl-N-(6-methyl-7-nitro-2,3-dioxo-1,2,3,4-tetrahydro-quinoxalin-5-ylmethyl)-benzamide] | –
30 nM | 2770 nM | 1220 nM | Cc1c([N+](=O)[O-])cc2[nH]c(=O)c(=O)[nH]c2c1CN(C)C(=O)c1ccccc1 [Compound 6, N-methyl-N-(6-methyl-7-nitro-2,3-dioxo-1,2,3,4-tetrahydro-quinoxalin-5-ylmethyl)-benzamide] | –

More lines, now with the values behind:

SMILES | IC50 [1] | IC50 KA [2] | IC50 (AMPA receptors) | further results
Cc1c([N+](=O)[O-])cc2[nH]c(=O)c(=O)[nH]c2c1CN(C)C(=O)CC1CCCCC1 [Compound 4, 2-Cyclohexyl-N-methyl-N-(6-methyl-7-nitro-2,3-dioxo-1,2,3,4-tetrahydro-quinoxalin-5-ylmethyl)-acetamide] | 200 nM | 2970 nM | 2050 nM | –
Cc1c([N+](=O)[O-])cc2[nH]c(=O)c(=O)[nH]c2c1CN(C)C(=O)Cc1ccccc1 [Compound 5, N-methyl-N-(6-methyl-7-nitro-2,3-dioxo-1,2,3,4-tetrahydro-quinoxalin-5-ylmethyl)-2-phenyl-acetamide] | 20 nM | 590 nM | 350 nM | –
Cc1c([N+](=O)[O-])cc2[nH]c(=O)c(=O)[nH]c2c1CN(C)C(=O)c1ccc([N+](=O)[O-])cc1 [Compound 10, N-Methyl-N-(6-Methyl-7-nitro-2,3-dioxo-1,2,3,4-tetrahydro-quinoxalin-5-ylmethyl)-4-nitro-benzamide] | – | 950 nM | 1120 nM | –
CCOC(=O)N(C)Cc1c(C)c([N+](=O)[O-])cc2[nH]c(=O)c(=O)[nH]c12 [Compound 15, Methyl-(6-methyl-7-nitro-2,3-dioxo-1,2,3,4-tetrahydro-quinoxalin-5-ylmethyl)-carbamic acid ethyl ester] | 100 nM | 290 nM | 210 nM | Ataxic (%) (CF-1 strain mice; 10 min, 3 mg/kg): 0%; Protected (%) (CF-1 strain mice; 10 min, 3 mg/kg): 0%; Ataxic (%) (CF-1 strain mice; 10 min, 10 mg/kg): 0%; Protected (%) (CF-1 strain mice; 10 min, 10 mg/kg): 40%; Ataxic (%) (CF-1 strain mice; 30 min, 3 mg/kg): 0%; Protected (%) (CF-1 strain mice; 30 min, 3 mg/kg): 0%; Ataxic (%) (CF-1 strain mice; 30 min, 10 mg/kg): 0%; Protected (%) (CF-1 strain mice; 30 min, 10 mg/kg): 60%
Cc1c([N+](=O)[O-])cc2[nH]c(=O)c(=O)[nH]c2c1CN(C)C(=O)c1cc2ccccc2s1 [Compound 13, Benzo[b]thiophene-2-carboxylic acid methyl-(6-methyl-7-nitro-2,3-dioxo-1,2,3,4-tetrahydro-quinoxalin-5-ylmethyl)-amide] | 40 nM | 5980 nM | 620 nM | –
Cc1c([N+](=O)[O-])cc2[nH]c(=O)c(=O)[nH]c2c1CN(C)C(=O)c1ccc(Cl)c(Cl)c1 [Compound 9, 3,4-Dichloro-N-methyl-N-(6-methyl-7-nitro-2,3-dioxo-1,2,3,4-tetrahydro-quinoxalin-5-ylmethyl)-benzamide] | – | 3450 nM | 1690 nM | –
Cc1c([N+](=O)[O-])cc2[nH]c(=O)c(=O)[nH]c2c1CN(C)C(=O)C1CCCCC1 [Compound 3, Cyclohexanecarboxylic acid-methyl-(6-methyl-7-nitro-2,3-dioxo-1,2,3,4-tetrahydro-quinoxalin-5-ylmethyl)amide] | 300 nM | 3210 nM | 910 nM | –
CC(=O)N(C)Cc1c(C)c([N+](=O)[O-])cc2[nH]c(=O)c(=O)[nH]c12 [Compound 1, N-Methyl-N-(6-methyl-7-nitro-2,3-dioxo-1,2,3,4-tetrahydro-quinoxalin-5-ylmethyl)-acetamide] | 30 nM | 1660 nM | 350 nM | –
Cc1c([N+](=O)[O-])cc2[nH]c(=O)c(=O)[nH]c2c1CN(C)C(=O)c1ccco1 [Compound 12, Furan-2-carboxylic acid methyl-(6-methyl-7-nitro-2,3-dioxo-1,2,3,4-tetrahydro-quinoxalin-5-ylmethyl)-amide] | 6 nM | 1210 nM | 380 nM | Ataxic (%) (CF-1 strain mice; 3 min, 30 mg/kg): 40%; Protected (%) (CF-1 strain mice; 3 min, 30 mg/kg): 40%; Ataxic (%) (CF-1 strain mice; 15 min, 10 mg/kg): 0%; Protected (%) (CF-1 strain mice; 15 min, 10 mg/kg): 40%; Ataxic (%) (CF-1 strain mice; 15 min, 30 mg/kg): 60%; Protected (%) (CF-1 strain mice; 15 min, 30 mg/kg): 80%; Protected (%) (CF-1 strain mice; 30 min, 10 mg/kg): 40%; Ataxic (%) (CF-1 strain mice; 30 min, 30 mg/kg): 20%; Protected (%) (CF-1 strain mice; 30 min, 30 mg/kg): 40%; Ataxic (%) (CF-1 strain mice; 60 min, 30 mg/kg): 20%; Protected (%) (CF-1 strain mice; 60 min, 30 mg/kg): 40%; duration of action in maximal electroshock time course compared with PNQX (CF-1 strain mice): extended duration of action
Cc1c([N+](=O)[O-])cc2[nH]c(=O)c(=O)[nH]c2c1CN(C)C(=O)c1cccs1 [Compound 11, Thiophene-2-carboxylic acid-methyl-(6-methyl-7-nitro-2,3-dioxo-1,2,3,4-tetrahydro-quinoxalin-5-ylmethyl)-amide] | 8 nM | 1230 nM | 460 nM | Ataxic (%) (CF-1 strain mice; 5 min, 10 mg/kg): 0%; Protected (%) (CF-1 strain mice; 5 min, 10 mg/kg): 0%; Ataxic (%) (CF-1 strain mice; 5 min, 30 mg/kg): 40%; Protected (%) (CF-1 strain mice; 5 min, 30 mg/kg): 40%; Ataxic (%) (CF-1 strain mice; 15 min, 10 mg/kg): 0%; Protected (%) (CF-1 strain mice; 15 min, 10 mg/kg): 40%; Ataxic (%) (CF-1 strain mice; 15 min, 30 mg/kg): 60%; Protected (%) (CF-1 strain mice; 15 min, 30 mg/kg): 80%; Ataxic (%) (CF-1 strain mice; 30 min, 10 mg/kg): 0%; Protected (%) (CF-1 strain mice; 30 min, 10 mg/kg): 40%; Ataxic (%) (CF-1 strain mice; 30 min, 30 mg/kg): 20%; Protected (%) (CF-1 strain mice; 30 min, 30 mg/kg): 40%; Ataxic (%) (CF-1 strain mice; 60 min, 10 mg/kg): 0%; Protected (%) (CF-1 strain mice; 60 min, 10 mg/kg): 0%; Ataxic (%) (CF-1 strain mice; 60 min, 30 mg/kg): 20%; Protected (%) (CF-1 strain mice; 60 min, 30 mg/kg): 40%; duration of action in maximal electroshock time course compared with PNQX (CF-1 strain mice): extended duration of action
